Reference: patent US20210267203A1, “PESTICIDALLY ACTIVE AZOLE-AMIDE COMPOUNDS” (SYNGENTA PARTICIPATIONS AG, priority 2018, published 2021)

Assays:
Format in all cases: in vivo
[1] = tested on: Plutella xylostella (Diamondback Moth); assay: Example B14: activity against Plutella xylostella (diamondback moth), 96-well artificial diet; details: 216 h, application rate 500 ppm, 9 days after infestation
How it was run: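 Diet in 96-well plates was treated with aqueous dilutions of 10,000 ppm DMSO stocks, dried, and infested with 30 eggs per well via a netted lid; hatching L1 larvae fed on the diet. Mortality scored 9 days after infestation.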

[2] = tested on: Plutella xylostella (Diamond Back Moth); assay: Example B5: Plutella xylostella (diamond back moth), artificial diet, 24-well, eggs; details: 192 h, application rate 200 ppm, 8 days after infestation, read-out: effect in at least one of the two categories (mortality or growth inhibition)
How it was run: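 Artificial diet in 24-well plates treated with aqueous dilutions of 10,000 ppm DMSO stocks, dried, then infested with Plutella eggs. Mortality and growth inhibition scored against untreated samples 8 days after infestation; activity rated at 200 ppm application rate.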

[3] = tested on: Diabrotica Balteata (Corn Root Worm); assay: Example B1: Diabrotica balteata (corn root worm), maize sprouts sprayed, L2 larvae; details: 96 h, application rate 200 ppm, 4 days after infestation, read-out: effect in at least one of the two categories (mortality or growth inhibition)
How it was run: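 Maize sprouts on agar sprayed with aqueous dilutions of 10,000 ppm DMSO stocks, dried, then infested with 6–10 L2 larvae per well. Mortality and growth inhibition scored against untreated samples 4 days after infestation; rates of 200 ppm.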

[4] = tested on: Euschistus heros (Neotropical Brown Stink Bug); assay: Example B2: Euschistus heros (neotropical brown stink bug), soybean leaves sprayed, N2 nymphs; details: 120 h, application rate 200 ppm, 5 days after infestation, read-out: effect in at least one of the two categories (mortality or growth inhibition)
Experimental: Example B2: Euschistus heros (Neotropical Brown Stink Bug)
Soybean leaves on agar in 24-well microtiter plates were sprayed with aqueous test solutions prepared from 10,000 ppm DMSO stock solutions. After drying the leaves were infested with N2 nymphs. The samples were assessed for mortality and growth inhibition in comparison to untreated samples 5 days after infestation.
The following compounds gave an effect of at least 80% in at least one of the two categories (mortality or growth inhibition) at an application rate of 200 ppm: […]

[5] = tested on: Myzus persicae (Green Peach Aphid); assay: Example B8: Myzus persicae (green peach aphid), intrinsic activity; details: 120 h, test rate 12 ppm, sucrose solution, 24-well, 5 days after infestation
From the text: Example B8: Myzus persicae (Green Peach Aphid), Intrinsic Activity
Test compounds prepared from 10,000 ppm DMSO stock solutions were applied by pipette into 24-well microtiter plates and mixed with sucrose solution. The plates were closed with a stretched Parafilm. A plastic stencil with 24 holes was placed onto the plate and infested pea seedlings were placed directly on the Parafilm. The infested plate was closed with a gel blotting paper and another plastic stencil and then turned upside down. The samples were assessed for mortality 5 days after infestation.

[6] = tested on: Myzus persicae (Green Peach Aphid); assay: Example B13: activity against Myzus persicae (green peach aphid), 96-well sucrose solution; details: 120 h, application rate 50 ppm, 5 days after infestation
How it was run: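 Compounds, from 10,000 ppm DMSO stocks, mixed into sucrose solution in wells under stretched Parafilm, with aphids placed on the membrane in an inverted feeding setup. Mortality scored 5 days after infestation.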

[7] = tested on: Thrips tabaci (Onion Thrips); assay: Example B12: Thrips tabaci (onion thrips), feeding/contact activity; details: 144 h, application rate 200 ppm, mixed ages, 6 days after infestation
Experimental: Example B12: Thrips tabaci (Onion Thrips) Feeding/Contact Activity
Sunflower leaf discs were placed on agar in 24-well microtiter plates and sprayed with aqueous test solutions prepared from 10,000 ppm DMSO stock solutions. After drying the leaf discs were infested with a thrips population of mixed ages. The samples were assessed for mortality 6 days after infestation.

[8] = tested on: Spodoptera littoralis (Egyptian Cotton Leaf Worm); assay: Example B10: Spodoptera littoralis (Egyptian cotton leaf worm), uptake by lettuce roots from agar, eggs; details: 144 h, test rate 12.5 ppm, lettuce root uptake, 6 days after infestation, read-out: effect in at least one of the three categories (mortality, anti-feeding, or growth inhibition)
From the text: Example B10: Spodoptera littoralis (Egyptian Cotton Leaf Worm)
Test compounds were applied by pipette from 10,000 ppm DMSO stock solutions into 24-well plates and mixed with agar. Lettuce seeds were placed onto the agar and the multi well plate was closed by another plate which contained also agar. After 7 days the compound was absorbed by the roots and the lettuce grew into the lid plate. The lettuce leaves were then cut off into the lid plate. Spodoptera eggs were pipetted through a plastic stencil onto a humid gel blotting paper and the lid plate was closed with it. The samples were assessed for mortality, anti-feedant effect and growth inhibition in comparison to untreated samples 6 days after infestation.
The following compounds gave an effect of at least 80% in at least one of the three categories (mortality, anti-feeding, or growth inhibition) at a test rate of 12.5 ppm: […]

[9] = tested on: Spodoptera littoralis (Egyptian Cotton Leaf Worm); assay: Example B9: Spodoptera littoralis (Egyptian cotton leaf worm), cotton leaf discs sprayed, L1 larvae; details: foliar, 72 h, application rate 200 ppm, 3 days after infestation
How it was run: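 Leaf discs on agar sprayed with aqueous dilutions from 10,000 ppm DMSO stock, dried, then infested with five L1 larvae. Mortality, anti-feeding and growth inhibition scored against untreated samples 3 days after infestation; control counted when any category exceeds untreated.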

[10] = tested on: Chilo suppressalis (Striped Rice Stemborer); assay: Example B4: Chilo suppressalis (striped rice stemborer), artificial diet, L2 larvae; details: 144 h, application rate 200 ppm, 6 days after infestation
Experimental: Example B4: Chilo suppressalis (Striped Rice Stemborer)
24-well microtiter plates with artificial diet were treated with aqueous test solutions prepared from 10,000 ppm DMSO stock solutions by pipetting. After drying, the plates were infested with L2 larvae (6-8 per well). The samples were assessed for mortality, anti-feeding effect, and growth inhibition in comparison to untreated samples 6 days after infestation. Control of Chilo suppressalis by a test sample is given when at least one of the categories (i.e. mortality, anti-feedant effect, and growth inhibition) is higher than the untreated sample.

[11] = tested on: Myzus persicae (Green Peach Aphid); assay: Example B6: Myzus persicae (green peach aphid), feeding/contact activity; details: 144 h, application rate 200 ppm, 6 days after infestation
Experimental: Example B6: Myzus persicae (Green Peach Aphid):Feeding/Contact Activity
Sunflower leaf discs were placed onto agar in a 24-well microtiter plate and sprayed with aqueous test solutions prepared from 10,000 ppm DMSO stock solutions. After drying, the leaf discs were infested with an aphid population of mixed ages. The samples were assessed for mortality 6 days after infestation.

CC(c1ncnn1-c1ncccn1)N(CC1CC1)C(=O)c1cc(Cl)cc(C2(C#N)CC2)n1 (stereo not drawn) [P29, 4-chloro-6-(1-cyanocyclopropyl)-N-(cyclopropylmethyl)-N-[1-(2-pyrimidin-2-yl-1,2,4-triazol-3-yl)ethyl]pyridine-2-carboxamide]
≥ 80%: mortality at 500 ppm [1] | percent effect (mortality or growth inhibition) at 200 ppm [2] | percent effect (mortality or growth inhibition) at 200 ppm [3] | percent effect (mortality or growth inhibition) at 200 ppm [4] | mortality at 12 ppm [5] | mortality at 50 ppm [6] | mortality at 200 ppm [7]

CC(c1ncnn1-c1ncccn1)N(CC1CC1)C(=O)c1cc(C(F)(F)F)cc(S(=O)(=O)C(F)F)c1 (stereo not drawn) [P30, N-(cyclopropylmethyl)-3-(difluoromethylsulfonyl)-N-[1-(2-pyrimidin-2-yl-1,2,4-triazol-3-yl)ethyl]-5-(trifluoromethyl)benzamide]
≥ 80%: mortality at 500 ppm [1] | percent effect (mortality or growth inhibition) at 200 ppm [2] | percent effect (mortality or growth inhibition) at 200 ppm [3] | percent effect (mortality or growth inhibition) at 200 ppm [4] | mortality at 12 ppm [5] | mortality at 50 ppm [6] | mortality at 200 ppm [7]

CC(c1ncnn1-c1ncccn1)N(CC1CC1)C(=O)c1cc(C(F)(F)F)nc(C2(C#N)CC2)c1 (stereo not drawn) [P32, 2-(1-cyanocyclopropyl)-N-(cyclopropylmethyl)-N-[1-(2-pyrimidin-2-yl-1,2,4-triazol-3-yl)ethyl]-6-(trifluoromethyl)pyridine-4-carboxamide]
≥ 80%: mortality at 500 ppm [1] | percent effect (mortality or growth inhibition) at 200 ppm [2] | percent effect (mortality or growth inhibition) at 200 ppm [3] | percent effect (mortality, anti-feeding or growth inhibition) at 12.5 ppm [8] | percent effect (mortality or growth inhibition) at 200 ppm [4] | percent control (mortality, anti-feedant effect or growth inhibition) at 200 ppm [9] | mortality at 50 ppm [6] | percent control (mortality, anti-feedant effect or growth inhibition) at 200 ppm [10] | mortality at 200 ppm [7]

CC(c1ncnn1-c1ncccn1)N(CC1CC1)C(=O)c1cc(C(F)(F)F)cc(C2(C)CC2C(F)(F)F)c1 (stereo not drawn) [P43, N-(cyclopropylmethyl)-3-[1-methyl-2-(trifluoromethyl)cyclopropyl]-N-[1-(2-pyrimidin-2-yl-1,2,4-triazol-3-yl)ethyl]-5-(trifluoromethyl)benzamide]
≥ 80%: mortality at 500 ppm [1] | percent effect (mortality or growth inhibition) at 200 ppm [2] | percent effect (mortality or growth inhibition) at 200 ppm [3] | percent effect (mortality, anti-feeding or growth inhibition) at 12.5 ppm [8] | mortality at 12 ppm [5] | percent control (mortality, anti-feedant effect or growth inhibition) at 200 ppm [9] | mortality at 50 ppm [6] | percent control (mortality, anti-feedant effect or growth inhibition) at 200 ppm [10]

CC(c1ncnn1-c1ncccn1)N(CC1CC1)C(=O)c1cc(C2CC2)cc(C(F)(F)F)c1 (stereo not drawn) [P52, 3-cyclopropyl-N-(cyclopropylmethyl)-N-[1-(2-pyrimidin-2-yl-1,2,4-triazol-3-yl)ethyl]-5-(trifluoromethyl)benzamide]
≥ 80%: mortality at 500 ppm [1] | percent effect (mortality or growth inhibition) at 200 ppm [2] | percent effect (mortality or growth inhibition) at 200 ppm [3] | percent effect (mortality or growth inhibition) at 200 ppm [4] | mortality at 12 ppm [5] | percent control (mortality, anti-feedant effect or growth inhibition) at 200 ppm [9] | mortality at 50 ppm [6] | mortality at 200 ppm [7]

CC(NC(=O)c1cc(C2CC2)nc(C(F)(F)F)c1)c1ncnn1-c1ncccn1 (stereo not drawn) [P54, 2-cyclopropyl-N-[1-(2-pyrimidin-2-yl-1,2,4-triazol-3-yl)ethyl]-6-(trifluoromethyl)pyridine-4-carboxamide]
≥ 80%: mortality at 500 ppm [1] | percent effect (mortality or growth inhibition) at 200 ppm [2] | percent effect (mortality or growth inhibition) at 200 ppm [3] | percent effect (mortality, anti-feeding or growth inhibition) at 12.5 ppm [8] | percent effect (mortality or growth inhibition) at 200 ppm [4] | mortality at 12 ppm [5] | percent control (mortality, anti-feedant effect or growth inhibition) at 200 ppm [9] | mortality at 50 ppm [6]

CC(c1ncnn1-c1ncccn1)N(CC1CC1)C(=O)c1cc(C2CC2)nc(C(F)(F)F)c1 (stereo not drawn) [P55, 2-cyclopropyl-N-(cyclopropylmethyl)-N-[1-(2-pyrimidin-2-yl-1,2,4-triazol-3-yl)ethyl]-6-(trifluoromethyl)pyridine-4-carboxamide]
≥ 80%: mortality at 500 ppm [1] | percent effect (mortality or growth inhibition) at 200 ppm [2] | percent effect (mortality or growth inhibition) at 200 ppm [3] | percent effect (mortality, anti-feeding or growth inhibition) at 12.5 ppm [8] | percent effect (mortality or growth inhibition) at 200 ppm [4] | mortality at 12 ppm [5] | mortality at 50 ppm [6]

CC(c1ncnn1-c1ncccn1)N(C)C(=O)c1cc(C(F)(F)F)cc(C(F)(F)C2CC2)c1 (stereo not drawn) [P58, 3-[cyclopropyl(difluoro)methyl]-N-methyl-N-[1-(2-pyrimidin-2-yl-1,2,4-triazol-3-yl)ethyl]-5-(trifluoromethyl)benzamide]
≥ 80%: mortality at 500 ppm [1] | percent effect (mortality or growth inhibition) at 200 ppm [2] | percent effect (mortality or growth inhibition) at 200 ppm [3] | percent effect (mortality, anti-feeding or growth inhibition) at 12.5 ppm [8] | percent effect (mortality or growth inhibition) at 200 ppm [4] | mortality at 12 ppm [5] | percent control (mortality, anti-feedant effect or growth inhibition) at 200 ppm [9] | mortality at 50 ppm [6] | percent control (mortality, anti-feedant effect or growth inhibition) at 200 ppm [10]

CC(NC(=O)c1cc(C(F)(F)F)cc(C(F)(F)C2CC2)c1)c1ncnn1-c1ncccn1 (stereo not drawn) [P59, 3-[cyclopropyl(difluoro)methyl]-N-[1-(2-pyrimidin-2-yl-1,2,4-triazol-3-yl)ethyl]-5-(trifluoromethyl)benzamide]
≥ 80%: mortality at 500 ppm [1] | percent effect (mortality or growth inhibition) at 200 ppm [2] | percent effect (mortality or growth inhibition) at 200 ppm [3] | percent effect (mortality, anti-feeding or growth inhibition) at 12.5 ppm [8] | percent effect (mortality or growth inhibition) at 200 ppm [4] | mortality at 12 ppm [5] | percent control (mortality, anti-feedant effect or growth inhibition) at 200 ppm [9] | mortality at 50 ppm [6] | percent control (mortality, anti-feedant effect or growth inhibition) at 200 ppm [10]

CC(NC(=O)c1cc(C2CC2(F)F)cc(C(F)(F)F)c1)c1ncnn1-c1ncccn1 (stereo not drawn) [P87, 3-(2,2-difluorocyclopropyl)-N-[1-(2-pyrimidin-2-yl-1,2,4-triazol-3-yl)ethyl]-5-(trifluoromethyl)benzamide]
≥ 80%: percent effect (mortality or growth inhibition) at 200 ppm [2] | percent effect (mortality or growth inhibition) at 200 ppm [3] | percent effect (mortality, anti-feeding or growth inhibition) at 12.5 ppm [8] | percent effect (mortality or growth inhibition) at 200 ppm [4] | mortality at 200 ppm [11] | mortality at 12 ppm [5] | percent control (mortality, anti-feedant effect or growth inhibition) at 200 ppm [9] | mortality at 50 ppm [6] | percent control (mortality, anti-feedant effect or growth inhibition) at 200 ppm [10]
